From patent publication US10118935B2, “Melampomagnolide B dimers” (priority 2014, dated 2018) come the findings set out here.

One series concerns EKVX. The series is described as follows: NCI 60 cell line five dose, Non-Small Cell Lung Cancer. The series is classed as cell-based, human. The note with it: for CC50: read-out: LC50 (the source's name).
The test system of a further series is IGROV1. Put plainly: NCI 60 cell line five dose, Ovarian Cancer. The series is classed as cell-based, human.

SMILES strings stand for the structures. Where two headings read alike, the source gives them in different places.

For `C=C1C(=O)O[C@H]2[C@H]1CC/C(COC(=O)NCCCCNC(=O)OC/C1=C/CC[C@@]3(C)O[C@H]3[C@H]3OC(=O)C(=C)[C@@H]3CC1)=C\CC[C@@]1(C)O[C@@H]21` [JVM 3-54, bis(((1aR,7aS,10aS,10bS,E)-1a-Methyl-8-methylene-9-oxo-1a,2,3,6,7,7a,8,9,10a,10b-decahydrooxireno[2′,3′:9,10]cyclodeca[1,2-b]furan-5-yl)methyl)butane-1,4-diyldicarbamate], the concentration for 50% growth inhibition (GI50) in the series on EKVX is 3.69 µM; in the series with IGROV1, 3.32 µM. Moreover, the TGI in the series on EKVX was found to be 1.35e-05 M; with IGROV1 it was 1.24e-05 M. The “Percent Growth” value in the series on EKVX (Log10 Concentration −4.0) is −98%; with EKVX (Log10 Concentration −5.0), 15%; in the series on EKVX (Log10 Concentration −6.0), 96%; with EKVX (Log10 Concentration −7.0), 92%; with EKVX (Log10 Concentration −8.0), 97%; in the series with IGROV1 (Log10 Concentration −4.0) it was −76%. Moreover, the “Percent Growth” value in the series with IGROV1 (Log10 Concentration −5.0) amounted to 8%; in the series with IGROV1 (Log10 Concentration −6.0) it was 96%; in the series on IGROV1 (Log10 Concentration −7.0) it was 104%; with IGROV1 (Log10 Concentration −8.0) it was 101%. The figures for the CC50 in the series on EKVX and in the series on IGROV1 (read-out: LC50 (the source's name)) were 37.3 µM and 48.6 µM, respectively.
As for `C=C1C(=O)O[C@H]2[C@H]1CC/C(COC(=O)CCC(=O)NCCCCCCCCCNC(=O)CCC(=O)OC/C1=C/CC[C@@]3(C)O[C@H]3[C@H]3OC(=O)C(=C)[C@@H]3CC1)=C\CC[C@@]1(C)O[C@@H]21` [JVM 2-92, bis(((1aR,7aS,10aS,10bS,E)-1a-Methyl-8-methylene-9-oxo-1a,2,3,6,7,7a,8,9,10a,10b-decahydrooxireno[2′,3′:9,10]cyclodeca[1,2-b]furan-5-yl)methyl)4,4′-(nonane-1,9-diylbis(azanediyl))bis (4-oxobutanoate)], the CC50 with K-562 is above 100 µM; with MOLT-4, above 100 µM; in the series on SR, above 100 µM; with A549/ATCC, 82.6 µM; with NCI-H522, 5.63 µM; in the series on HCC-2998, 9.82 µM. For the same compound, the CC50 with HCT-116 stood at 4.97 µM; in the series on HCT-15 it was 46 µM; in the series with SF-295 it was 52 µM; in the series with SF-539, 9.95 µM; in the series with SNB-75, 15.6 µM; with U251, 44.7 µM. The CC50 is 8.93 µM in the series with MALME-3M; 6.22 µM in the series with SK-MEL-28; 9.37 µM in the series with SK-MEL-5; above 100 µM with OVCAR-8; above 100 µM in the series on NCI/ADR-RES; 17.2 µM in the series with ACHN. Besides, the CC50 in the series with RXF 393 is 6.21 µM; in the series with SN12C it was 49.7 µM; with TK-10, 6.02 µM; in the series with PC-3 it was 29.6 µM; with MDA-MB-231/ATCC, 13.3 µM; with HS 578T, above 100 µM. Besides, the CC50 in the series on BT-549 was 4.65 µM; with T-47D, above 100 µM; with MDA-MB-468 it was 7.04 µM.
Take `C=C1C(=O)O[C@H]2[C@H]1CC/C(COC(=O)CCC(=O)NCCCCCCCCNC(=O)CCC(=O)OC/C1=C/CC[C@@]3(C)O[C@H]3[C@H]3OC(=O)C(=C)[C@@H]3CC1)=C\CC[C@@]1(C)O[C@@H]21` [JVM 2-87, bis(((1aR,7aS,10aS,10bS,E)-1a-Methyl-8-methylene-9-oxo-1a,2,3,6,7,7a,8,9,10a,1b-decahydrooxireno[2′,3′:9,10]cyclodeca[1,2-b]furan-5-yl)methyl)4,4′-(octane-1,8-diylbis(azanediyl))bis(4-oxobutanoate)]: the CC50 with K-562 is above 100 µM; with MOLT-4, above 100 µM; in the series with SR, above 100 µM; in the series with A549/ATCC, 89.4 µM; in the series with NCI-H522, 6.36 µM; in the series with HCC-2998 it was 63.6 µM. For the same compound, the CC50 with HCT-116 was 5.41 µM; in the series with HCT-15, 43.2 µM; in the series with SF-295, 56.8 µM; in the series with SF-539, 20.9 µM; in the series on SNB-75, 26.9 µM; with U251, 43 µM. In addition, the CC50 in the series with MALME-3M was 8 µM; in the series on SK-MEL-28 it was 6.32 µM; with SK-MEL-5, 38.4 µM; in the series with OVCAR-8, above 100 µM; in the series with NCI/ADR-RES, above 100 µM; in the series on ACHN, 34.7 µM. In addition, the CC50 was 7.27 µM in the series with RXF 393; 53.8 µM with SN12C; 7.46 µM in the series on TK-10; 9.88 µM in the series with MDA-MB-231/ATCC; above 100 µM in the series on HS 578T; 5.12 µM in the series with BT-549. The CC50 in the series on MDA-MB-468 was determined as 21.3 µM.
For `C=C1C(=O)O[C@H]2[C@H]1CC/C(COC(=O)NCCCCCCCCNC(=O)OC/C1=C/CC[C@@]3(C)O[C@H]3[C@H]3OC(=O)C(=C)[C@@H]3CC1)=C\CC[C@@]1(C)O[C@@H]21` [JVM 3-62, bis(((1aR,7aS, 10aS, 10bS, E)-1a-Methyl-8-methylene-9-oxo-1a,2,3,6,7,7a,8,9,10a,10b-decahydrooxireno[2′,3′:9,10]cyclodeca[1,2-b]furan-5-yl)methyl)octane-1,8-diyldicarbamate], the “Percent Growth” value is given as −98% in the series on EKVX (Log10 Concentration −4.0); −99% in the series on EKVX (Log10 Concentration −5.0); 62% with EKVX (Log10 Concentration −6.0); 90% in the series on EKVX (Log10 Concentration −7.0); 91% with EKVX (Log10 Concentration −8.0); −71% with IGROV1 (Log10 Concentration −4.0). Also, the “Percent Growth” value is listed as −71% with IGROV1 (Log10 Concentration −5.0), 61% with IGROV1 (Log10 Concentration −6.0), 102% with IGROV1 (Log10 Concentration −7.0) and 105% in the series on IGROV1 (Log10 Concentration −8.0). Further, the GI50 in the series on EKVX (molar) amounted to 1.19 µM; with IGROV1 (molar), 1.01 µM. Moreover, the TGI in the series with EKVX (molar) is 2.44E−6; with IGROV1 (molar), 2.61E−6. The CC50 with EKVX (molar) is 4.99 µM.

Usually GI50 stands for the concentration that inhibits growth by half. High values mean lower sensitivity of the cells, low ones greater sensitivity of the cells.
